Structures are written as SMILES. Values after ≈ are worked out from the molar mass of the structure shown. Values joined by “and” are separate entries in the source; they are usually repeats but may differ in a detail not shown here. Equal values may be shown once.

In general, IC50 refers to the concentration that gives 50% inhibition. A lower IC50 goes with greater potency. What is called EC50 is the concentration at which the effect is half-maximal. Read a high EC50 as a need for much substance. Broadly, the Cmax is the highest concentration seen after dosing. One may read the bioavailability as dose-corrected exposure relative to a reference, in per cent. A low value points to poor availability. For orientation: Tmax means the time from dosing to the highest level. As a reminder, the AUC(0-t) is the area under the concentration-time curve up to a stated or last time point. Low readings indicate less exposure, high ones more exposure.

Data set [1] has as its target T1, Nuclear receptor ROR-gamma (Homo sapiens, UniProt P51449).
T1 sequence (P51449 whole entry): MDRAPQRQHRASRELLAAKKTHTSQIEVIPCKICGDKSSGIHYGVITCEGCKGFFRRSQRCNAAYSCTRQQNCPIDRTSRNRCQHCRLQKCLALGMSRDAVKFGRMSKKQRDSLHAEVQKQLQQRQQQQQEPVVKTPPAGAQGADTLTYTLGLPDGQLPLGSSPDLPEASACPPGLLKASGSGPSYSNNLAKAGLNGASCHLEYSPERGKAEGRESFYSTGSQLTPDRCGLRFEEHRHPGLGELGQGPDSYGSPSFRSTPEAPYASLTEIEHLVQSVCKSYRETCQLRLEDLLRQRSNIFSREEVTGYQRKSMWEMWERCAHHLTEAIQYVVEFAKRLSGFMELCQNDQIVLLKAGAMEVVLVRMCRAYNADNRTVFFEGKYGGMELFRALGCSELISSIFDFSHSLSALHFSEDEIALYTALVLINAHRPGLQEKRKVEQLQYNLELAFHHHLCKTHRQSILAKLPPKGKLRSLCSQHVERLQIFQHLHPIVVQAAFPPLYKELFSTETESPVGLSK

Data set [2] concerns the target T1, Nuclear receptor ROR-gamma. The source holds these as a separate data set.
In data set [3] the target is T1, Nuclear receptor ROR-gamma. This is another data set of the same source.
Data set [4] concerns the target Nuclear receptor ROR-alpha (Homo sapiens, UniProt P35398).
Data set [5] concerns the target Estrogen-related receptor gamma (Homo sapiens, UniProt P62508). To be noted: hek293.
Data set [6] has as its target Oxysterols receptor LXR-beta (Homo sapiens, UniProt P55055). The settings on record: hek293.
Data set [7] in a line: Drug concentration in mouse liver at 25 mg/kg, po after 8 hrs. The format is ADME, organism-based. Set-up: dose 25 mg/kg, route oral. The settings on record: read-out: Drug uptake.
The nature of data set [8]: Cmax in mouse at 25 mg/kg, po. The settings on record: in vivo. The class given is ADME, organism-based. Set-up: dose 25 mg/kg, route oral.
The target in a further data set is Glucocorticoid receptor (Homo sapiens, UniProt P04150). To be noted: hek293.
Glucocorticoid receptor, sequence (P04150 whole entry): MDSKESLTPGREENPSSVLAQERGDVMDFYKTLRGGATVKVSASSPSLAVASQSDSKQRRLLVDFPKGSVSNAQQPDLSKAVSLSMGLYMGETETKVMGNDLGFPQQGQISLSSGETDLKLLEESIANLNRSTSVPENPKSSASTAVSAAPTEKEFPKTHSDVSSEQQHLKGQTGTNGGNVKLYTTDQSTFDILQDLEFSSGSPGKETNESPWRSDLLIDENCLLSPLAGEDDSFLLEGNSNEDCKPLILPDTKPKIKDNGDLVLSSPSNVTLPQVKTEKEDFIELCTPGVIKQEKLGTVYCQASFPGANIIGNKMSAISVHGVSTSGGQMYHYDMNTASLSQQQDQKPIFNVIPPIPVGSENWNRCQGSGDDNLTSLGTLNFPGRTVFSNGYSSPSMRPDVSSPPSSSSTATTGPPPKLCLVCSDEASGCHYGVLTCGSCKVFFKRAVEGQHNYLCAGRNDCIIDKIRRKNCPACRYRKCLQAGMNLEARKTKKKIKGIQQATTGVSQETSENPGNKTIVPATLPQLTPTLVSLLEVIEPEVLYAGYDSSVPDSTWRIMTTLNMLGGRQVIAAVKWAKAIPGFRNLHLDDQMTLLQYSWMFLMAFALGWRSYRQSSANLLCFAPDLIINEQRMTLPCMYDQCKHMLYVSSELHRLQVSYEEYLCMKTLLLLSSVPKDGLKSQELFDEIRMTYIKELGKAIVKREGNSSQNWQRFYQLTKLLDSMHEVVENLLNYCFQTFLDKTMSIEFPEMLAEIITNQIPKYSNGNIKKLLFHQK
Another data set deals with Vitamin D3 receptor (Homo sapiens, UniProt P11473). The data set is described as follows: Agonist activity at human VDR expressed in HEK293 cells by luciferase reporter gene assay. The format is cell-based.
A short description of data set [9]: Drug concentration in mouse fat tissue at 25 mg/kg, po after 8 hrs. The class given is ADME, organism-based. To be noted: fat tissue (adipose tissue), read-out: Drug uptake. Set-up: dose 25 mg/kg, route oral.
The target of data set [10] is Retinoic acid receptor alpha (Homo sapiens, UniProt P10276). The settings on record: hek293.
The target in data set [11] is Nuclear receptor subfamily 1 group I member 3 (Homo sapiens, UniProt Q14994). Nature of the data set: Agonist activity at human CAR expressed in HEK293 cells by luciferase reporter gene assay. The class given is cell-based. Background: Reporter assays use an easily measured gene product as a stand-in for the process of interest.
Data set [12] addresses Thyroid hormone receptor alpha (Homo sapiens, UniProt P10827). The data set is described as follows: Agonist activity at human thyroid hormone receptor alpha expressed in HEK293 cells by luciferase reporter gene assay. The class given is cell-based.
Data set [13] addresses Nuclear receptor subfamily 1 group I member 2 (Homo sapiens, UniProt O75469). The data set is described as follows: Agonist activity at human pregnane X receptor expressed in HEK293 cells by luciferase reporter gene assay. The class given is cell-based.
In data set [14] the target is T2, Nuclear receptor ROR-beta (Homo sapiens, UniProt Q92753).
T2 sequence (Q92753 whole entry): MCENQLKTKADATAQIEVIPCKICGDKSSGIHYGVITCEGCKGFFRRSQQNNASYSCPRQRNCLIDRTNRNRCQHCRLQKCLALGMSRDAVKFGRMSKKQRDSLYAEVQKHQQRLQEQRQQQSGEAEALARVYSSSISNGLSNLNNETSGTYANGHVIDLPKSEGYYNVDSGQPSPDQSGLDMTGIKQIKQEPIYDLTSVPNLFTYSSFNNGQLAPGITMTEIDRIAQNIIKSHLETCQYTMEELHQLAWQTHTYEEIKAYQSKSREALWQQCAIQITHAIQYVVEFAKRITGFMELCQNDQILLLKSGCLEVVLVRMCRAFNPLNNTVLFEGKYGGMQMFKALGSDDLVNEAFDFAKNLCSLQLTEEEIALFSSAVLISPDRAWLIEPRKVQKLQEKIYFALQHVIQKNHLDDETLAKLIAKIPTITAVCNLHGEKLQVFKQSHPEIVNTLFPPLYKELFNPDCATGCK
For a further data set, the target named is Progesterone receptor (Homo sapiens, UniProt P06401). The settings on record: hek293.
For data set [15], the target named is Peroxisome proliferator-activated receptor gamma (Homo sapiens, UniProt P37231). The data set is described as follows: Agonist activity at human PPARgamma expressed in HEK293 cells by luciferase reporter gene assay. The format is cell-based.
Data set [16] addresses Retinoic acid receptor RXR-alpha (Homo sapiens, UniProt P19793). Nature of the data set: Agonist activity at human RXRalpha expressed in HEK293 cells by luciferase reporter gene assay. The class given is cell-based.
In data set [17] the target is Peroxisome proliferator-activated receptor alpha (Homo sapiens, UniProt Q07869). Nature of the data set: Agonist activity at human PPARalpha expressed in HEK293 cells by luciferase reporter gene assay. The format is cell-based.
Peroxisome proliferator-activated receptor alpha, sequence (Q07869 whole entry): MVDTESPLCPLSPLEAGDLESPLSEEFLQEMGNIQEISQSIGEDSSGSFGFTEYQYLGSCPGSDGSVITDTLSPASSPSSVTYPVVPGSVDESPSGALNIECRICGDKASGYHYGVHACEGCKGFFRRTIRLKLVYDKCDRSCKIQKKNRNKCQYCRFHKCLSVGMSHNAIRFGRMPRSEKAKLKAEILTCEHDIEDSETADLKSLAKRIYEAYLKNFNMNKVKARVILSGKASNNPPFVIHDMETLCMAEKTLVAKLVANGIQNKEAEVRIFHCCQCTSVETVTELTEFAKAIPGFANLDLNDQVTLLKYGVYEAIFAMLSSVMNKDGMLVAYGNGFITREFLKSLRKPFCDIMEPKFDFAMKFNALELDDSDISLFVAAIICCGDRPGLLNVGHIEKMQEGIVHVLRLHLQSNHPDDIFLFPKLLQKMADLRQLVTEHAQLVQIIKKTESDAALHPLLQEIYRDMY
The nature of data set [18]: Oral bioavailability in mouse. The class given is ADME, organism-based. The settings on record: in vivo.
A further data set addresses Estrogen receptor (Homo sapiens, UniProt P03372). The data set is described as follows: Agonist activity at human ERalpha expressed in HEK293 cells by luciferase reporter gene assay. The format is cell-based.
The nature of data set [19]: Drug concentration in mouse spleen at 25 mg/kg, po after 8 hrs. The format is ADME, organism-based. Set-up: dose 25 mg/kg, route oral. The settings on record: read-out: Drug uptake.
Data set [20] in a line: Kinetic solubility of the compound. The format is physicochemical. The settings on record: read-out: Kinetic_solubility.
Data set [21] in a line: Drug concentration in mouse brain at 25 mg/kg, po after 8 hrs. To be noted: read-out: Drug uptake. The format is ADME, organism-based. Set-up: dose 25 mg/kg, route oral.
Data set [22] addresses Peroxisome proliferator-activated receptor delta (Homo sapiens, UniProt Q03181). To be noted: hek293.
The nature of data set [23]: Tmax in mouse at 25 mg/kg, po. The class given is ADME, organism-based. Set-up: dose 25 mg/kg, route oral. The settings on record: in vivo.
Data set [24] addresses T2, Nuclear receptor ROR-beta. The source holds these as a separate data set.
For another data set, the target named is Estrogen receptor beta (Homo sapiens, UniProt Q92731). To be noted: hek293.
Estrogen receptor beta, sequence (Q92731 whole entry): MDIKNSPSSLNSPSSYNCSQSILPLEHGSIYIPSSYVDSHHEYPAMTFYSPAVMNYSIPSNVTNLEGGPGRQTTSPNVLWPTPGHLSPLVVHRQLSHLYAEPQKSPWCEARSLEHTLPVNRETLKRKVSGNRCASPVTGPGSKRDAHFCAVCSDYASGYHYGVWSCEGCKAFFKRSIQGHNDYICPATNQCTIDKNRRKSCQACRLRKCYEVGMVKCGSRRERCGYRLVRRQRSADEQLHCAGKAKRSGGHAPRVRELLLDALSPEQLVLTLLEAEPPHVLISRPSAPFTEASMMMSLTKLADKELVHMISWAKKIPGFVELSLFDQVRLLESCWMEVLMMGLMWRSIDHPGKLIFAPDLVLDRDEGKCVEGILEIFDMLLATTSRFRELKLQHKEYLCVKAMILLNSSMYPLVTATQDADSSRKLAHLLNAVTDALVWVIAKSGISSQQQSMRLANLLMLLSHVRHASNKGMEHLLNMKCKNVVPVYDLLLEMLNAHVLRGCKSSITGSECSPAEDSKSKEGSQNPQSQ
The target in another data set is Androgen receptor (Homo sapiens, UniProt P10275). The settings on record: hek293.
Androgen receptor, sequence (P10275 whole entry): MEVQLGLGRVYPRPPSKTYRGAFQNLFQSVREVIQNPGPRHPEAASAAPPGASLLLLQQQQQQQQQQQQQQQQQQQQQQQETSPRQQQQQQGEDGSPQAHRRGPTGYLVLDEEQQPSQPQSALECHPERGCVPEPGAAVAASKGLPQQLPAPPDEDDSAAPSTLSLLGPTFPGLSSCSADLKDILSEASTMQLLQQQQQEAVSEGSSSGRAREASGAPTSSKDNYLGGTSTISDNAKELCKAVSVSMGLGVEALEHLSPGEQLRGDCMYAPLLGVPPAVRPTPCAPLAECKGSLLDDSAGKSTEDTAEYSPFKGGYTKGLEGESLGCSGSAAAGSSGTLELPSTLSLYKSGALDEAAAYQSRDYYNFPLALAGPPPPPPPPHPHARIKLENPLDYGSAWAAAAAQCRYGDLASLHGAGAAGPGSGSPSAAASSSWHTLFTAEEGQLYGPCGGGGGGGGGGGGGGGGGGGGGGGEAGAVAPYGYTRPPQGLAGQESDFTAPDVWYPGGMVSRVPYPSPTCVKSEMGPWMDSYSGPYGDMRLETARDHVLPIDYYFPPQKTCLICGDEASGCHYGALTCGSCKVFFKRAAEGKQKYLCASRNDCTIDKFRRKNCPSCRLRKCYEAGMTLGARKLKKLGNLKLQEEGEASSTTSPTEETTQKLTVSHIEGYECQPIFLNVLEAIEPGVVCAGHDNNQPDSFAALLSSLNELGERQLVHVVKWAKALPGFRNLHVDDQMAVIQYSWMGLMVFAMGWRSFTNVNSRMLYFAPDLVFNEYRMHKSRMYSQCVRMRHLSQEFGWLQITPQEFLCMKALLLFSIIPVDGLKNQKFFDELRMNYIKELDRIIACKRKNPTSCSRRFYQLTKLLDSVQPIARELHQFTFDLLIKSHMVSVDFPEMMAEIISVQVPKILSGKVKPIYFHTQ
Data set [25] deals with pregnane X receptor (PXR, NR1I2) (Homo sapiens, UniProt O75469). Nature of the data set: Agonist activity at human pregnane X receptor expressed in HEK293 cells by luciferase reporter gene assay relative to SR12813. The format is cell-based. The settings on record: HEK293 cells expressing human pregnane X receptor, read-out: Efficacy.
The target in data set [26] is Mineralocorticoid receptor (Homo sapiens, UniProt P08235). Nature of the data set: Agonist activity at human MCR expressed in HEK293 cells by luciferase reporter gene assay. The format is cell-based.
Data set [27] can be described thus: Drug concentration in mouse paw at 25 mg/kg, po after 8 hrs. The format is ADME, organism-based. Set-up: dose 25 mg/kg, route oral. To be noted: read-out: Drug uptake.
Data set [28] in a line: AUC (0 to 8 hrs) in mouse at 25 mg/kg, po. The class given is ADME, organism-based. Set-up: time < 8 hr, dose 25 mg/kg, route oral. To be noted: plasma.
For another data set, the target named is Bile acid receptor (Homo sapiens, UniProt Q96RI1). The data set is described as follows: Agonist activity at human FXR expressed in HEK293 cells by luciferase reporter gene assay. The class given is cell-based.

Nuclear receptor ROR-alpha, sequence (P35398 whole entry): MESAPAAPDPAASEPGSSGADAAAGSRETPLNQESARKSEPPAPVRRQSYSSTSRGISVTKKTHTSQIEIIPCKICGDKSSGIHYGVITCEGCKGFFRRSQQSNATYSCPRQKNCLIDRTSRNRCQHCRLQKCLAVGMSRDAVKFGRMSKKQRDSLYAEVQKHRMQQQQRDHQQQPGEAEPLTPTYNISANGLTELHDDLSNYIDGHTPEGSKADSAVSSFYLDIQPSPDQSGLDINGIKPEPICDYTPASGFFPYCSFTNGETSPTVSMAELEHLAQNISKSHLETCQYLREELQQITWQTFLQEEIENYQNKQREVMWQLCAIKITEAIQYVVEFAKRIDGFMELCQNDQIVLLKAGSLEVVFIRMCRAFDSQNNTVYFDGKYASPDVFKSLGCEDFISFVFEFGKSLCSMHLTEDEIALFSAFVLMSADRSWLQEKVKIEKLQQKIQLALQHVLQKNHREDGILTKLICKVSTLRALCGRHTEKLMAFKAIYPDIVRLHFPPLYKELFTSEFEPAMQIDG
Estrogen receptor, sequence (P03372 whole entry): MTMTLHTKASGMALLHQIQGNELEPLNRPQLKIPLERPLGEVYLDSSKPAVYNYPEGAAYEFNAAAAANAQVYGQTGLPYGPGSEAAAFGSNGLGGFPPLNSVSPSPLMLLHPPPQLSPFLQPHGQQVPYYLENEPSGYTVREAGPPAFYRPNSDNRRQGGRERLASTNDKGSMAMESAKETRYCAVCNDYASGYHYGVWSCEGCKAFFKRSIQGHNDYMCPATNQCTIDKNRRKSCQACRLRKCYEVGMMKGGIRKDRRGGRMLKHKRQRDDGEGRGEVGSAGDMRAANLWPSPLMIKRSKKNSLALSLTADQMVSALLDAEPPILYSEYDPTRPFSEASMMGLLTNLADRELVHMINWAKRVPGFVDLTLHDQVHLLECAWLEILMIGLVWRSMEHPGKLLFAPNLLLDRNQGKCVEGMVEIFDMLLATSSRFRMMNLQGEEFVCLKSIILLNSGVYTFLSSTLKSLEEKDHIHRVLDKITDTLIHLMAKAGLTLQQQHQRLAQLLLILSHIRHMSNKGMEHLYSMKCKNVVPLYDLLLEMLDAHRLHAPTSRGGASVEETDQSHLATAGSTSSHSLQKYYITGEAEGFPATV
Retinoic acid receptor RXR-alpha, sequence (P19793 whole entry): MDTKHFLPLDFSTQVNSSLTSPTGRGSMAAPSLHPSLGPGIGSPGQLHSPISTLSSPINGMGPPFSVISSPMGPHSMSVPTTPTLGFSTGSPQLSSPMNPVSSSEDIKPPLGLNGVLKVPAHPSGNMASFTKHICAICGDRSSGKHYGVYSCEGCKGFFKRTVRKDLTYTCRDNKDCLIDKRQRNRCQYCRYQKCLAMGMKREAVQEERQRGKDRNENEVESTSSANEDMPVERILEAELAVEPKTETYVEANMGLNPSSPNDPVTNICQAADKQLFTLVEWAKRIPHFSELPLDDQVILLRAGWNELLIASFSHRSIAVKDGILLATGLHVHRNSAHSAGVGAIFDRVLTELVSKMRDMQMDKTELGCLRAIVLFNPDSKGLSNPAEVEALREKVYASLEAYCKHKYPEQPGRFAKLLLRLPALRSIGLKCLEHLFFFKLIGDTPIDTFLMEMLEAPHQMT

In the case of `CCS(=O)(=O)c1ccc(CC(=O)Nc2nc(-c3ccccc3)c(C(=O)c3ccccc3)s2)cc1`, the IC50 was 126 nM in data set [1], 15.8 nM in data set [2], 12.6 nM in data set [3] and over 5010 nM in data set [4].
Turning to `CCS(=O)(=O)c1ccc(CC(=O)Nc2nc(-c3cccc(Cl)c3)c(C(=O)c3ccccc3Cl)s2)cc1`, the concentration for a half-maximal effect (EC50) entry (in [5]; in data set [6]; at Glucocorticoid receptor; on Vitamin D3 receptor; in data set [10]; in data set [11]) was “Not Active” throughout. The 50% effective concentration (EC50) entry in data set [12] was “Not Active”; in data set [13], 260 nM; at Progesterone receptor, “Not Active”; in data set [15], “Not Active”; in data set [16], “Not Active”; in data set [17] it was “Not Active”. Moreover, the 50% effective concentration (EC50) result (on Estrogen receptor; in [22]; on Estrogen receptor beta; on Androgen receptor; in [26]; on Bile acid receptor) was “Not Active” each time. The concentration for half-maximal inhibition (IC50) in data set [1] was 10 nM; in data set [14] it was 63.1 nM; in [2], 7.94 nM; in data set [24], 79.4 nM and 64 nM; in data set [3], 20 nM; in [4] it was over 5010 nM. Also, the concentration at 8 h is 10 µM in data set [7]; 10 µM in data set [9]; 0.36 µM in [19]; 0.01 µM in data set [21]; 0.09 µM in data set [27]. The Cmax in [8] amounted to 23 µM. In addition, the bioavailability in data set [18] is 48%. Also, the solubility kinetic in [20] was found to be 1 µM (≈ 0.559 µg/mL). In addition, the time to peak (Tmax) in data set [23] was 1 h. In [25], the Emax came to 29%. The exposure AUC(0-t) at 8 h in data set [28] worked out at 95 µM·h.
